Tests used:
A498 = assay: Cytotoxicity against human A498 cells assessed as cell growth at 10 uM after 48 hrs by sulforhodamine B assay relative to control; type: functional; details: A498, 48 h, read-out: Activity
MDA-MB-231 [1] = assay: Cytotoxicity against human MDA-MB-231 cells assessed as cell growth at 0.01 uM after 48 hrs by sulforhodamine B assay relative to control; type: functional; details: MDA-MB-231, 48 h, read-out: Activity
CCRF-CEM [2] = assay: Cytotoxicity against human CCRF-CEM cells assessed as cell growth at 0.01 uM after 48 hrs by sulforhodamine B assay relative to control; type: functional; details: read-out: Activity
MDA-MB-231 [3] = assay: Cytotoxicity against human MDA-MB-231 cells assessed as growth inhibition after 48 hrs by MTT assay; type: functional, cell-based; details: MDA-MB-231, 48 h
TK-10 [4] = assay: Cytotoxicity against human TK10 cells assessed as cell growth at 0.01 uM after 48 hrs by sulforhodamine B assay relative to control; type: functional; details: TK-10, 48 h, read-out: Activity
SR [5] = assay: Cytotoxicity against human SR cells assessed as growth inhibition after 48 hrs by sulforhodamine B assay; type: functional
SK-MEL-28 [6] = assay: Cytotoxicity against human SK-MEL-28 cells assessed as cell growth at 1 uM after 48 hrs by sulforhodamine B assay relative to control; type: functional; details: SK-MEL-28, 48 h, read-out: Activity
RXF 393 [7] = assay: Cytotoxicity against human RXF393 cells assessed as cell growth at 100 uM after 48 hrs by sulforhodamine B assay relative to control; type: functional; details: RXF 393, 48 h, read-out: Activity
OVCAR-4 = assay: Cytotoxicity against human OVCAR4 cells assessed as cell growth at 10 uM after 48 hrs by sulforhodamine B assay relative to control; type: functional; details: OVCAR-4, 48 h, read-out: Activity
HT-29 = assay: Cytotoxicity against human HT-29 cells assessed as cell growth at 10 uM after 48 hrs by sulforhodamine B assay relative to control; type: functional; details: HT-29, 48 h, read-out: Activity
SK-MEL-28 [8] = assay: Cytotoxicity against human SK-MEL-28 cells assessed as cell growth at 0.01 uM after 48 hrs by sulforhodamine B assay relative to control; type: functional; details: SK-MEL-28, 48 h, read-out: Activity
HL-60(TB) = assay: Cytotoxicity against human HL-60(TB) cells assessed as cell growth at 1 uM after 48 hrs by sulforhodamine B assay relative to control; type: functional; details: HL-60, 48 h, read-out: Activity
Hs-578T = assay: Cytotoxicity against human Hs 578T cells assessed as cell growth at 0.01 uM after 48 hrs by sulforhodamine B assay relative to control; type: functional; details: read-out: Activity
SN12C [9] = assay: Cytotoxicity against human SN12C cells assessed as cell growth at 0.1 uM after 48 hrs by sulforhodamine B assay relative to control; type: functional; details: read-out: Activity
U-251 [10] = assay: Cytotoxicity against human U251 cells assessed as cell growth at 1 uM after 48 hrs by sulforhodamine B assay relative to control; type: functional; details: U-251, 48 h, read-out: Activity
U-251 [11] = assay: Cytotoxicity against human U251 cells assessed as cell growth at 10 uM after 48 hrs by sulforhodamine B assay relative to control; type: functional; details: U-251, 48 h, read-out: Activity
BT-549 [12] = assay: Cytotoxicity against human BT549 cells assessed as cell growth at 100 uM after 48 hrs by sulforhodamine B assay relative to control; type: functional; details: BT-549, 48 h, read-out: Activity
TK-10 [13] = assay: Cytotoxicity against human TK10 cells assessed as cell growth at 0.1 uM after 48 hrs by sulforhodamine B assay relative to control; type: functional; details: TK-10, 48 h, read-out: Activity
UO-31 = assay: Cytotoxicity against human UO31 cells assessed as growth inhibition after 48 hrs by sulforhodamine B assay; type: functional; details: UO-31, 48 h
SK-MEL-28 [14] = assay: Cytotoxicity against human SK-MEL-28 cells assessed as cell growth at 0.1 uM after 48 hrs by sulforhodamine B assay relative to control; type: functional; details: SK-MEL-28, 48 h, read-out: Activity
M14 = assay: Cytotoxicity against human M14 cells assessed as cell growth at 100 uM after 48 hrs by sulforhodamine B assay relative to control; type: functional; details: M14, 48 h, read-out: Activity
Malme-3M = assay: Cytotoxicity against human MALME-3M cells assessed as growth inhibition after 48 hrs by sulforhodamine B assay; type: functional
NCI-H322M = assay: Cytotoxicity against human NCI-H322M cells assessed as growth inhibition after 48 hrs by sulforhodamine B assay; type: functional
RXF 393 [15] = assay: Cytotoxicity against human RXF393 cells assessed as cell growth at 0.1 uM after 48 hrs by sulforhodamine B assay relative to control; type: functional; details: RXF 393, 48 h, read-out: Activity
CCRF-CEM [16] = assay: Cytotoxicity against human CCRF-CEM cells assessed as cell growth at 1 uM after 48 hrs by sulforhodamine B assay relative to control; type: functional; details: read-out: Activity
MDA-MB-468 = assay: Cytotoxicity against human MDA-MB-468 cells assessed as cell growth at 0.01 uM after 48 hrs by sulforhodamine B assay relative to control; type: functional; details: MDA-MB-468, 48 h, read-out: Activity
SN12C [17] = assay: Cytotoxicity against human SN12C cells assessed as cell growth at 10 uM after 48 hrs by sulforhodamine B assay relative to control; type: functional; details: read-out: Activity
BT-549 [18] = assay: Cytotoxicity against human BT549 cells assessed as cell growth at 0.01 uM after 48 hrs by sulforhodamine B assay relative to control; type: functional; details: BT-549, 48 h, read-out: Activity
MDA-MB-435 = assay: Cytotoxicity against human MDA-MB-435 cells assessed as cell growth at 1 uM after 48 hrs by sulforhodamine B assay relative to control; type: functional; details: MDA-MB-435, 48 h, read-out: Activity
MOLT-4 = assay: Cytotoxicity against human MOLT4 cells assessed as cell growth at 1 uM after 48 hrs by sulforhodamine B assay relative to control; type: functional; details: MOLT-4, 48 h, read-out: Activity
SNB-19 = assay: Cytotoxicity against human SNB19 cells assessed as cell growth at 10 uM after 48 hrs by sulforhodamine B assay relative to control; type: functional; details: SNB-19, 48 h, read-out: Activity
A549 = assay: Cytotoxicity against human A549/ATCC cells assessed as cell growth at 0.1 uM after 48 hrs by sulforhodamine B assay relative to control; type: functional; details: A549, 48 h, read-out: Activity
K562 = assay: Cytotoxicity against human K562 cells assessed as cell growth at 1 uM after 48 hrs by sulforhodamine B assay relative to control; type: functional; details: K562, 48 h, read-out: Activity
TK-10 [19] = assay: Cytotoxicity against human TK10 cells assessed as cell growth at 10 uM after 48 hrs by sulforhodamine B assay relative to control; type: functional; details: TK-10, 48 h, read-out: Activity
SR [20] = assay: Cytotoxicity against human SR cells assessed as cell growth at 0.01 uM after 48 hrs by sulforhodamine B assay relative to control; type: functional; details: read-out: Activity
U-251 [21] = assay: Cytotoxicity against human U251 cells assessed as cell growth at 0.01 uM after 48 hrs by sulforhodamine B assay relative to control; type: functional; details: U-251, 48 h, read-out: Activity
UACC-257 = assay: Cytotoxicity against human UACC257 cells assessed as growth inhibition after 48 hrs by sulforhodamine B assay; type: functional; details: UACC-257, 48 h
[22] = read-out: LC50 (the source's name)

With COc1cc(C(=O)/C=C/c2cc(-c3cc(OC)c(OC)c(OC)c3)n[nH]2)cc(OC)c1OC the growth at 10 µM (A498) was -64%, the growth at 0.01 µM (MDA-MB-231 [1]) was 110% and the growth at 0.01 µM (CCRF-CEM [2]) was 96%. The IC50 (MDA-MB-231 [3]) was 0.7 µM, the growth at 0.01 µM (TK-10 [4]) was 99% and the TGI (SR [5]) was over 100 µM. The CC50 (SR [5]; [22]) was over 100 µM, the growth at 1 µM (SK-MEL-28 [6]) was 100% and the growth at 100 µM (RXF 393 [7]) was -98%. For the same compound, the growth at 10 µM (OVCAR-4) was -100%, the growth at 10 µM (HT-29) was -86% and the growth at 0.01 µM (SK-MEL-28 [8]) was 101%. It also gave a growth at 1 µM (HL-60(TB)) of 81%, a growth at 0.01 µM (Hs-578T) of 93% and a growth at 0.1 µM (SN12C [9]) of 98%. For the same compound, the growth at 1 µM (U-251 [10]) was 83%, the growth at 10 µM (U-251 [11]) was -94% and the growth at 100 µM (BT-549 [12]) was -94%. It also gave a growth at 0.1 µM (TK-10 [13]) of 109%, an LC50 (UO-31) of 5.16 µM and a TGI (UO-31) of 2.48 µM. It also gave a growth at 0.1 µM (SK-MEL-28 [14]) of 105%, a growth at 100 µM (M14) of -88% and an LC50 (Malme-3M) of 8.99 µM. For the same compound, the TGI (Malme-3M) was 4.09 µM, the TGI (NCI-H322M) was 4.85 µM and the CC50 (NCI-H322M; [22]) was 14.4 µM. It also gave a growth at 0.1 µM (RXF 393 [15]) of 88%, a growth at 1 µM (CCRF-CEM [16]) of 67% and a growth at 0.01 µM (MDA-MB-468) of 90%. For the same compound, the growth at 10 µM (SN12C [17]) was -86%, the growth at 0.01 µM (BT-549 [18]) was 102% and the growth at 1 µM (MDA-MB-435) was 79%. The growth at 1 µM (MOLT-4) was 81%, the growth at 10 µM (SNB-19) was -62% and the growth at 0.1 µM (A549) was 94%. It also gave a growth at 1 µM (K562) of 94%, a growth at 10 µM (TK-10 [19]) of -98% and a growth at 0.01 µM (SR [20]) of 111%. The growth at 0.01 µM (U-251 [21]) was 96%, the LC50 (UACC-257) was 5.71 µM and the TGI (UACC-257) was 2.99 µM.
